Here are results for one compound from patent US9724334B1, “Method for treating a neurodegenerative disease or depression comprising administering derivatives of 2-amino-2-(1-dodecyl-1H-1,2,3-triazol-4-yl)propane-1,3-diol” (Kyungpook National University Industry-Academic Cooperation …, priority 2016, dated 2017).

What all share (type): in vivo, mouse
For assay [1], the system named is APP/PS1 mice. Description: Astrocytes (GFAP immunofluorescence) in cerebral cortex of APP/PS1 mice. The settings on record: 100 mg/kg/day via drinking water, versus APP/PS1 mice. How it is done:
(§1) To confirm the therapeutic effect of the novel ASM inhibitory compounds, the novel ASM inhibitory compound or AMI were fed via drinking water at a dose of 100 mg/kg/day to mice at 5.5 months of age. Three months after the feeding, behavioral analysis on the mice was performed, followed by sampling of mouse brain tissues (FIG. 3).
After fixing the cerebrum and hippocampus of the test mice, 0.5% thioflavin S (Sigma-Aldrich), anti-20G10 antibodies (Mouse, 1:1000) against Aβ, 42 and anti-G30 antibodies (rabbit, 1:1000) against Aβ, 40, anti-GFAP antibodies (rabbit, 1:500, DAKO) were cultured together. The above sites were analyzed using a laser scanning confocal microscope equipped with Fluoview SV1000 imaging software (Olympus FV1000, Japan) or an Olympus BX51 microscope. Percentage of area of stained area to total tissue area was quantified and analyzed using Metamorph software (Molecular Devices).
(§2) In order to determine the effect of the novel ASM inhibitory compounds according to the present invention on the change of nerve inflammation in the APP/PS1 mice, the present inventors observed a change in astrocytes of their brains.

Assay [2] concerns APP/PS1 mice. Description: Western blotting of autophagy-related proteins (LC3, Beclin-1, cathepsin D, p62) in brain tissue of APP/PS1 mice. The method, then: as §1
Expression of the following genes was analyzed using Western blotting. First, antibodies against LC3, Becklin-1, p62 (All of them were purchased from Cell Signaling Technologies), Cathepsin D (R&D systems) and β-actin (Santa Cruz) were used, while densitometric quantification was performed using ImageJ Software (US National Institutes of Health).
In order to verify the mechanism of the ASM inhibitory compound of the Chemical Formula 2 in the autophagy-related pathways upon its administration, the conversion of LC3-I into LC3-II, and the expression levels of Beclin-1, cathepsin D and p62 in the brain tissue samples of the WT mice, APP/PS1 mice, and APP/PS1 mice treated with the ASM inhibitory compound of the Chemical Formula 2 which were 9.5 months old, respectively, were confirmed by Western blotting experiments.
(In general: Immunoblotting shows a protein as a band on a membrane.)

Assay [3] deals with APP/PS1 mice. Description: Open field test and dark & light test (activity and anxiety) in APP/PS1 mice. The settings on record: 100 mg/kg/day via drinking water, versus APP/PS1 mice. How it is done:
as §1
Morris water maze (MWM) and fear conditioning experiments were conducted to identify potential effects on learning and memory. For MWM, the mice were learned the task four times a day for 10 days, followed by the removal of the platform at the 11th day and subsequently a probe trial. On the first day of the fear conditioning, the mice were placed in the conditioning chamber and subjected to sound stimulation (10 kHz, 70 dB) and electrical stimulation (0.3 mA, 1s). On the second day, their memory was checked without stimulation in the same conditioning chamber as on the first day. On the third day, memory tests were conducted for fear when only sound stimulation was given in another conditioning chamber. Open field tests and dark & light tests were conducted to assess activity and anxiety. In the open field test, the mice were placed in a square box for 10 minutes to measure their overall activity and time spent wandering the wall and center. […]

In assay [4] the test system is APP/PS1 mice. Description: Real-time quantitative PCR of inflammatory cytokines (TNF-α, IL-1b, IL-6) in brain of APP/PS1 mice. To be noted: mRNA, cerebral cortex, 100 mg/kg/day via drinking water, versus wild-type. How it is done: as §1
Real-time quantitative PCR was used to measure the expression levels of inflammatory cytokines (TNF-α, IL-1b, and IL-6). Total RNAs were extracted from brain tissues using RNeasy Plus mini kit (Qiagen, Korea, Ltd.), while cDNAs were synthesized from 5 μg of total RNAs using a kit from Clontech (Mountain View, Calif.). Also, using Corbett research RG-6000 real-time PCR instrument, PCR was performed at 95° C. for 10 minutes; 95° C. for 10 seconds; 58° C. for 15 seconds; 72° C. for 20 seconds as one cycle, while real-time quantitative PCR was performed in which 40 cycles were repeated.
as §2

Setting [5] is: 9.5 months old APP/PS1 mice, treated versus untreated.

`CCCCCCCCCCCCn1cc(C(N)(CO)CO)nn1` [Chemical Formula 2, 2-amino-2-(1-dodecyl-1H-1,2,3-triazol-4-yl)propane-1,3-diol]: the “activity of astrocytes (GFAP)” value in assay [1] was “significantly decreased”. Further, in assay [2] (setting [5]), the “conversion of LC3-I to LC3-II” value is given as “decreased”, the “expression level of cathepsin D” value is on record as “decreased” and the “expression level of p62” value is listed as “decreased”. In addition, in assay [2] (9.5 months old, WT, APP/PS1 and treated APP/PS1 mice compared), the “expression of Beclin-1” value is reported as “little difference”. The activity and anxiety result in assay [3] was “significantly improved”. Further, in assay [4], the “gene expression of IL-1b” value is listed as “restored to their normal levels”, the “gene expression of IL-6” value is “restored to their normal levels” and the “gene expression of TNF-α” value was “restored to their normal levels”.
